What follows are compounds tested against PIK3CA (human) (UniProt P42336) (assay: Inhibition of PIK3CA Kinase Activity).
PIK3CA (human), sequence (P42336 whole entry, looked up): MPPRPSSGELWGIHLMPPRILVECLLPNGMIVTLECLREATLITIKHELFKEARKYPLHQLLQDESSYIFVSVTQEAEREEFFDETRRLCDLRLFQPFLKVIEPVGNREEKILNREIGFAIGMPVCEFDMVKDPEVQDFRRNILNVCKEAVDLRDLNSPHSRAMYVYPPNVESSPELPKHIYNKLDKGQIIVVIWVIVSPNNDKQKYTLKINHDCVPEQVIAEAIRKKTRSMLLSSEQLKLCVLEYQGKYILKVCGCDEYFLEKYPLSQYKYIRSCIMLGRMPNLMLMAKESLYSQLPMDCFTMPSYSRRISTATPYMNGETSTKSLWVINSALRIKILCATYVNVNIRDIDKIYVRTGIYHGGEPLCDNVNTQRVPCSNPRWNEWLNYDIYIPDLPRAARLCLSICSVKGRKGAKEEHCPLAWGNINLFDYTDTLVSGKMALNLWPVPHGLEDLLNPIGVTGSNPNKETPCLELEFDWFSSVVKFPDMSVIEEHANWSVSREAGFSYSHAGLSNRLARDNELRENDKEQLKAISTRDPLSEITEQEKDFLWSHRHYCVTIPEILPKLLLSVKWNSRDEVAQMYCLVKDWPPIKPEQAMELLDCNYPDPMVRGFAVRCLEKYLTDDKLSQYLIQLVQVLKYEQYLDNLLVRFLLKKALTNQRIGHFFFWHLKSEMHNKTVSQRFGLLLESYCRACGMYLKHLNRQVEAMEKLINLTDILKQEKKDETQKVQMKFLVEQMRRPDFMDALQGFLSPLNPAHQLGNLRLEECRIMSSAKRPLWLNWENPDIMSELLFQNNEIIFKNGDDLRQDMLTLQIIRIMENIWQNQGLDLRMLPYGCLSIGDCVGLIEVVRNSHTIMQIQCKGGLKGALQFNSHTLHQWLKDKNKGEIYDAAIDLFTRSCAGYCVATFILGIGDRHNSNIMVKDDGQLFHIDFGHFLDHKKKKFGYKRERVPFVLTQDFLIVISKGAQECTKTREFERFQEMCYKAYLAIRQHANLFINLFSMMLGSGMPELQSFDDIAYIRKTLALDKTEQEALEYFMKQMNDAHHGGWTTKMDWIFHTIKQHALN

| Compound | IC50 [nM] |
| --- | --- |
| CCNc1nc2ccc(-c3ccc4c(c3)CN(c3cc(Nc5ccc(OC)cc5)ncn3)CCO4)cc2[nH]1 | 250 to 1000 |
| CCNc1nc2ccc(-c3ccc4c(c3)CN(c3nc(C)nc(Nc5ccccc5)c3C)CCO4)cc2[nH]1 | 50 to 250 |
| CC1(C)CCc2ncnc(N3CCOc4ccc(-c5cnc(N)c(S(=O)(=O)N6CCOCC6)c5)cc4C3)c2C1 | 50 to 250 |
| COc1cc2c(N3CCOc4ccc(-c5ccc6nc(C)[nH]c6c5)cc4C3)ncnc2c(OC)c1OC | 50 to 250 |
| COc1cc2ncnc(N3CCOc4ccc(-c5ccc6nc(C)[nH]c6c5)cc4C3)c2cc1OC | 50 to 250 |
| c1cc(N2CCOc3ccc(-c4ccc5nc[nH]c5c4)cc3C2)ncn1 | 250 to 1000 |
| Cc1nc2cc(-c3ccc4c(c3)CN(c3nc(CN(C)C)nc(C)c3-c3ccccc3)CCO4)ccc2[nH]1 | 50 to 250 |
| CCNc1nc2ccc(-c3ccc4c(c3)CN(c3cc(Nc5cccc(OC)c5)ncn3)CCO4)cc2[nH]1 | 250 to 1000 |
| Cc1ncnc(N2CCOc3ccc(-c4ccc5nc(N)sc5n4)cc3C2)c1Cc1ccc(F)cc1 | 50 to 250 |
| CN(C)C1CN(S(=O)(=O)c2cc(-c3ccc4c(c3)CN(c3ncnc5c3CC(C)(C)CC5)CCO4)cnc2N)C1 | 50 to 250 |
| Cc1nc2ccc(-c3ccc4c(c3)CN(c3cc(-c5ccccc5)nc5ccccc35)CCO4)cc2[nH]1 | 50 to 250 |
| Cc1c(NCCC2CCCN2C)ncnc1N1CCOc2ccc(-c3cnc4nc(C5CC5)[nH]c4c3)cc2C1 (configuration not stated) | 50 to 250 |
| Cc1nc(CN(C)C)nc(N2CCOc3ccc(-c4cnc5sc(N)nc5c4)cc3C2)c1CC(C)C | 50 to 250 |
| CC1(C)CCc2ncnc(N3CCOc4ccc(-c5cnc(N)c(S(=O)(=O)N6CCNCC6)c5)cc4C3)c2C1 | 50 to 250 |
| COc1cc2ncnc(N3CCOc4ccc(-c5ccc6nc(C)[nH]c6c5)cc4C3)c2cc1Br | 50 to 250 |
| COc1ccc2c(N3CCOc4ccc(-c5ccc(NC(C)=O)cc5)cc4C3)nc(C)nc2c1 | 250 to 1000 |
| Cc1nc2ccc(-c3ccc4c(c3)CN(c3ncnc5cc(Br)ccc35)CCO4)cc2[nH]1 | 50 to 250 |
| Cc1nc2ncc(-c3ccc4c(c3)CN(c3ncnc5c3CC[C@@H](C)C5)CCO4)cc2[nH]1 | 50 to 250 |
| Cc1nc2ccc(-c3ccc4c(c3)CN(c3ncnc(C)c3C)CCO4)cc2[nH]1 | 50 to 250 |
| Cc1nc2ccc(-c3ccc4c(c3)CN(c3ncnc(C)c3Cc3cccc(C(F)(F)F)c3)CCO4)cc2[nH]1 | 50 to 250 |
| CC1(C)CCc2ncnc(N3CCOc4ccc(-c5cnc6nccnc6c5)cc4C3)c2C1 | 250 to 1000 |
| CC1(C)CCc2ncnc(N3CCOc4ccc(-c5cnc6c(c5)OCCN6)cc4C3)c2C1 | 250 to 1000 |
| CNC(=O)c1ccc(-c2ccc3c(c2)CN(c2ncnc(C)c2Cc2ccc(F)cc2)CCO3)nc1 | 250 to 1000 |
| CC1(C)CCc2ncnc(N3CCOc4ccc(-c5cnc(N)c(S(=O)(=O)NC(C)(C)CN)c5)cc4C3)c2C1 | 50 to 250 |

| Compound | IC50 [nM] |
| --- | --- |
| CSc1nc2c(c(N3CCOc4ccc(-c5ccc6nc(C)[nH]c6c5)cc4C3)n1)CCC2 | 250 to 1000 |
| CC1(C)CCc2ncnc(N3CCOc4ccc(-c5cnc(N)c(S(=O)(=O)N6CCC(C)(N)C6)c5)cc4C3)c2C1 (configuration not stated) | 10 to 50 |
| Cc1nc2cc(-c3ccc4c(c3)CN(c3nc(C(C)N5CCCC5)nc5c3CC(C)(C)CC5)CCO4)cnc2[nH]1 (configuration not stated) | 50 to 250 |
| CC1(C)CCc2ncnc(N3CCOc4ccc(-c5cnc6[nH]c(CF)nc6c5)cc4C3)c2C1 | 10 to 50 |
| CCNc1nc2ccc(-c3ccc4c(c3)CN(c3ncnc5c3CC(C)(C)CC5)CCO4)cc2[nH]1 | 10 to 50 |
| CC1(C)CCc2ncnc(N3CCOc4ccc(-c5cnc(N)c(S(=O)(=O)N6CCCC6)c5)cc4C3)c2C1 | 50 to 250 |
| CCc1c(C)nc(C)nc1N1CCOc2ccc(-c3cnc4nc(C)[nH]c4c3)cc2C1 | 50 to 250 |
| CC(C)(O)CCS(=O)(=O)c1cc(-c2ccc3c(c2)CN(c2ncnc4c2CC(C)(C)CC4)CCO3)cnc1N | 10 to 50 |
| CCN(CC)Cc1nc(C)c(C(C)C)c(N2CCOc3ccc(-c4ccc5nc(C)[nH]c5c4)cc3C2)n1 | 10 to 50 |
| CCCc1c(C)nc(CN(C)C)nc1N1CCOc2ccc(-c3ccc4nc(C)[nH]c4c3)cc2C1 | 10 to 50 |
| CCNc1nc2ccc(-c3ccc4c(c3)CN(c3nc(CC)nc5ccccc35)CCO4)cc2[nH]1 | 10 to 50 |
| CC1(C)CCc2ncnc(N3CCOc4ccc(-c5cnc(N)c(S(=O)(=O)NCC6CNC6)c5)cc4C3)c2C1 | 10 to 50 |
| CC1(C)CCc2ncnc(N3CCOc4ccc(-c5ccc(-c6ncc[nH]6)cc5)cc4C3)c2C1 | 10 to 50 |
| CC1(C)C=Cc2ncnc(N3CCOc4ccc(-c5cnc(N)c(S(=O)(=O)N6CC[C@@H](N)C6)c5)cc4C3)c2C1 | 10 to 50 |
| Cc1ncc(-c2ccc3c(c2)CN(c2ncnc4c2CC(C)(C)CC4)CCO3)cc1NS(C)(=O)=O | 10 to 50 |
| Cc1nc2ccc(-c3ccc4c(c3)CN(c3ncnc5c(C#N)c6n(c35)CCCC6)CCO4)cc2[nH]1 | 50 to 250 |
| CCNc1nc2ccc(-c3ccc4c(c3)CN(c3ncnc(Nc5ccccc5)c3C)CCO4)cc2[nH]1 | 10 to 50 |
| Cc1nc2ccc(-c3ccc4c(c3)CN(c3ncnc5c3CCCC5)CCO4)cc2[nH]1 | 50 to 250 |
| COCc1nc2c(c(N3CCOc4ccc(-c5cnc6[nH]c(C)nc6c5)cc4C3)n1)CC(C)(C)CC2 | 10 to 50 |
| Cc1nc2ncc(-c3ccc4c(c3)CN(c3nc(CN(C)C)nc5ccc(F)cc35)CCO4)cc2[nH]1 | 10 to 50 |
| COC(=O)Nc1nc2ccc(-c3ccc4c(c3)CN(c3nccc5ccccc35)CCO4)cc2[nH]1 | 50 to 250 |
| CCNC(=O)c1ccc(-c2ccc3c(c2)CN(c2ccnc4ccccc24)CCO3)cc1 | 250 to 1000 |
| Cc1nc2ccc(-c3ccc4c(c3)CN(c3ncnc(C)c3Cc3cc(F)cc(F)c3)CCO4)cc2[nH]1 | 10 to 50 |
| Cc1nc2ccc(-c3ccc4c(c3)CN(c3ccnc(C)c3Cc3ccc(F)cc3)CCO4)cc2[nH]1 | 10 to 50 |

Next, values leading:

| IC50 [nM] | Compound |
| --- | --- |
| 10 to 50 | CC1(C)CCc2ncnc(N3CCOc4ccc(-c5cnc(N)c(S(=O)(=O)CC(O)CO)c5)cc4C3)c2C1 (configuration not stated) |
| 10 to 50 | CSc1nc2ccc(-c3ccc4c(c3)CN(c3ccnc5ccccc35)CCO4)cc2[nH]1 |
| 10 to 50 | COc1ccc2c(N3CCOc4ccc(-c5ccc(OC)c(OC)c5)cc4C3)nc(CN(C)C)nc2c1 |
| ≤ 10 | Cc1nc2cc(-c3ccc4c(c3)CN(c3nc(N)nc(C)c3Cc3ccc(F)cc3)CCO4)ccc2[nH]1 |
| 10 to 50 | COC(=O)Nc1nc2ccc(-c3ccc4c(c3)CN(c3ncnc5ccccc35)CCO4)cc2[nH]1 |
| 10 to 50 | CCC1CCc2ncnc(N3CCOc4ccc(-c5ccc6nc(C)[nH]c6c5)cc4C3)c2C1 (configuration not stated) |
| ≤ 10 | Cc1nc2cc(-c3ccc4c(c3)CN(c3nc([C@H]5CCCN5)nc5c3CC(C)(C)CC5)CCO4)cnc2[nH]1 |
| 10 to 50 | CC1(C)CCc2ncnc(N3CCOc4ccc(-c5cnc(N)c(S(=O)(=O)NCC(N)=O)c5)cc4C3)c2C1 |
| ≤ 10 | CCNc1nc2ncc(-c3ccc4c(c3)CN(c3ncnc(C)c3Cc3ccc(F)cc3)CCO4)cc2[nH]1 |
| ≤ 10 | Cc1nc2ccc(-c3ccc4c(c3)CN(c3nc(CNCCF)nc5c3CC(C)(C)CC5)CCO4)cc2[nH]1 |
| 10 to 50 | CCNc1nc(C)nc(N2CCOc3ccc(-c4cnc5nc(C)[nH]c5c4)cc3C2)c1C |
| 10 to 50 | CC[C@H](C)NCc1nc2c(c(N3CCOc4ccc(-c5cnc6nc(C)[nH]c6c5)cc4C3)n1)CC(C)(C)CC2 |
| 10 to 50 | COc1ccc2c(N3CCOc4ccc(-c5ccc6nc(C)[nH]c6c5)cc4C3)nc(C)nc2c1 |
| 10 to 50 | Cc1nc2ccc(-c3ccc4c(c3)CN(c3nc(CO)nc(C)c3C(C)C)CCO4)cc2[nH]1 |
| 10 to 50 | CC1(C)CCc2ncnc(N3CCOc4ccc(-c5cnc6nc[nH]c6c5)cc4C3)c2C1 |
| 10 to 50 | Cc1ncnc(N2CCOc3ccc(-c4cnc5nc[nH]c5c4)cc3C2)c1Cc1ccc(F)cc1 |
| ≤ 10 | Cc1nc2cc(-c3ccc4c(c3)CN(c3nc(CN(C)C)nc(C)c3Cc3ccc(F)cc3)CCO4)cnc2[nH]1 |
| 10 to 50 | CCc1nc(CN(C)C)nc(N2CCOc3ccc(-c4ccc5[nH]c(C)nc5c4)cc3C2)c1C |
| 10 to 50 | CCNc1nc2ccc(-c3ccc4c(c3)CN(c3ncnc(Nc5ccc(OC)cc5)c3C)CCO4)cc2[nH]1 |
| ≤ 10 | CC1(C)CCc2ncnc(N3CCOc4ccc(-c5cnc(N)c(S(=O)(=O)NCCF)c5)cc4C3)c2C1 |

| IC50 [nM] | Compound |
| --- | --- |
| 10 to 50 | CC1(C)CCc2ncnc(N3CCOc4ccc(-c5cnc(N)c(S(=O)(=O)N6CCC(O)C6)c5)cc4C3)c2C1 (configuration not stated) |
| ≤ 10 | Nc1nc2ncc(-c3ccc4c(c3)CN(c3ncnc5ccc(F)cc35)CCO4)cc2[nH]1 |
| 10 to 50 | CC[C@H]1CCc2c(ncnc2N2CCOc3ccc(-c4cnc(N)c(S(=O)(=O)N5C[C@@H]6C[C@H]5CN6)c4)cc3C2)C1 |
| 10 to 50 | Cc1nc2ncc(-c3ccc4c(c3)CN(c3nc(CO)nc5c3CC(C)(C)CC5)CCO4)cc2[nH]1 |
| ≤ 10 | CCNc1nc2ccc(-c3ccc4c(c3)CN(c3cc(C)nc5ccccc35)CCO4)cc2[nH]1 |
| ≤ 10 | CNCc1nc2c(c(N3CCOc4ccc(-c5cnc6nc(C)[nH]c6c5)cc4C3)n1)CC(C)(C)CC2 |
| 10 to 50 | Cc1nc2ccc(-c3ccc4c(c3)CN(c3ncnc(C)c3Cc3cc(F)cc(Cl)c3)CCO4)cc2[nH]1 |
| ≤ 10 | Cc1nc2ncc(-c3ccc4c(c3)CN(c3nc(CNC(C)C)nc5c3CC(C)(C)CC5)CCO4)cc2[nH]1 |
| 10 to 50 | CC1=Cc2ncnc(N3CCOc4ccc(-c5cnc6nc(C)[nH]c6c5)cc4C3)c2CC1(C)C |
| ≤ 10 | CCNc1nc2ccc(-c3ccc4c(c3)CN(c3cc(C)nc5cc(OC)ccc35)CCO4)cc2[nH]1 |
| 10 to 50 | CC1=Cc2ncnc(N3CCOc4ccc(-c5cnc(N)c(S(=O)(=O)NC[C@H]6CCN(C)C6)c5)cc4C3)c2CC1(C)C |
| ≤ 10 | CCN(C)Cc1nc2c(c(N3CCOc4ccc(-c5cnc6nc(C)[nH]c6c5)cc4C3)n1)CC(C)(C)CC2 |
| ≤ 10 | Cc1ccc2ncnc(N3CCOc4ccc(-c5cnc6nc(N)[nH]c6c5)cc4C3)c2c1 |
| ≤ 10 | Nc1nc2ncc(-c3ccc4c(c3)CN(c3ncnc5cc(Cl)c(Br)cc35)CCO4)cc2[nH]1 |
| ≤ 10 | Cc1nc(N)nc(N2CCOc3ccc(-c4ccc5[nH]cnc5c4)cc3C2)c1Cc1ccc(F)cc1 |
| ≤ 10 | COc1ncc(-c2ccc3c(c2)CN(c2ncnc4c2CC(C)(C)CC4)CCO3)cc1NS(C)(=O)=O |
| ≤ 10 | Cc1nc(CNCCF)nc(N2CCOc3ccc(-c4cnc5sc(N)nc5c4)cc3C2)c1C(C)C |
| ≤ 10 | CN(C)Cc1nc2c(c(N3CCOc4ccc(-c5ccc6[nH]c(CF)nc6c5)cc4C3)n1)CC(C)(C)CC2 |
| ≤ 10 | Cc1ncnc(N2CCOc3ccc(-c4ccc(-c5ncc[nH]5)cc4)cc3C2)c1Cc1ccc(F)cc1 |

Source: the Kinase Knowledgebase extract (Sharma et al. 2016)
